# According to US8895547B2, “Substituted phenyl-oxathiazine derivatives, method for producing them, drugs containing said compounds and the use thereof” (Sanofi, priority 2011, dated 2014):
# Target: T1, human 11β-HSD1 (Homo sapiens, UniProt P28845)
# T1 construct: host or cells: microsome fraction
# Assay: Enzymatic 11beta-HSD1 test (SPA-based detection)
# Format: biochemical
# Conditions: human 11β-HSD1 microsome fraction, [1,2-3H]-cortisone, NADPH, 37° C. 1 hour
# Experimental: Enzymatic 11beta-HSD1 test:
# To measure the activity of the compounds, an SPA-based detection method (Solly et al. 2005) was employed. First of all, 20 μl of the human 11β-HSD1 microsome fraction (0.2 μg of protein), prepared in 50 mM HEPES, 0.1% BSA (w/v), were applied to a plate with 384 wells. The test compounds (0.09 μl) were applied to the assay plate in 100% DMSO. The reaction was started by addition of 20 μl of [1,2-^3H]-cortisone (0.1 μCi/[…]) in assay buffer comprising 25 mM HEPES, 100 mM KCl, 5 mM NaCl, 2 mM MgCl2 and 0.25 mM NADPH. The plate was agitated at 37° C. for 1 hour. At the same time, a stop solution comprising 20 mg/ml SPA-PVT beads, 1.6 mg/ml monoclonal cortisol antibody and 0.01 mM SSR110887 (inhibitor from the Biovitrium patent) in 50 mM HEPES, 1 M NaCl and 1 M KCl was stirred at room temperature. To stop the reaction, 25 μl of the stop solution were added to each well. The plate was agitated gently at room temperature for 1 further hour and then centrifuged at 500 gav for 1 minute, in order that the SPA beads could settle out. The plate was then read in a Wallac-1450-Microbeta unit with a standard SPA program (counting time 1 min/well). The comparative compound was glycyrrhetinic acid.
# Protein and radioactive substrate were dispensed with a Biomek FX unit (Beckman Coulter) for handling liquids. The test compounds were added with a Cybi-Well equipped with a 90 nl pin tool (CyBio).
# Lit.: Solly S, Mundt S S, Zokian H J, Juy-Fang Ding G, Hermanowski-Vosatka A, Strulovici B and Zheng W. High-throughput screening of 11β-Hydroxysteroid dehydrogenase type 1 in scintillation proximity format. Assay Drug Dev Technol 2005; 3:377-384.
# T1 sequence (P28845 whole entry): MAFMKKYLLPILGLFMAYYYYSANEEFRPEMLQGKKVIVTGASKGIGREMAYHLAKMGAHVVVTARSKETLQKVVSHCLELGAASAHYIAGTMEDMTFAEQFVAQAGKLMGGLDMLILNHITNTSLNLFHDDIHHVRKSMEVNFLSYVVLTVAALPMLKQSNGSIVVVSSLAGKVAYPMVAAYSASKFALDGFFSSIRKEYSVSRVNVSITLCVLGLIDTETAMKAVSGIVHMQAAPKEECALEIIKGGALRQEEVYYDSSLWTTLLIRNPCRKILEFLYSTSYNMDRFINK
row,SMILES,IC50
1,"CC1(C)OC(N[C@@H](CCO)c2ccccc2)=NS(=O)(=O)C1c1ccccc1 (single isomer, unassigned) [Example 28]",16 nM
2,"CC1(C)OC(N[C@@H](CCO)c2ccccc2)=NS(=O)(=O)C1c1ccccc1 (single isomer, unassigned) [Example 29]",23 nM
3,"CC1(C)OC(N[C@@H](CCO)c2ccccc2F)=NS(=O)(=O)C1c1ccc(-c2ccccc2)cc1 (single isomer, unassigned) [Example 69]",13 nM
4,"CC1(C)OC(N[C@@H](CCO)c2ccccc2F)=NS(=O)(=O)C1c1ccc(-c2ccccc2)cc1 (single isomer, unassigned) [Example 70]",19 nM
5,"CC(C)(C)c1ccc(C2C(C)(C)OC(N[C@@H](CCO)c3ccccc3F)=NS2(=O)=O)cc1 (single isomer, unassigned) [Example 84]",15 nM
6,"CC1(C)OC(N[C@@H](CCO)c2ccccc2F)=NS(=O)(=O)C1c1ccc(N2CCN(CCC(F)(F)F)CC2)cc1 (single isomer, unassigned) [Example 182]",6 nM
7,"CC1(C)OC(N[C@@H](CCO)c2ccccc2)=NS(=O)(=O)C1c1cccc(C(F)(F)F)c1 (stereo partly drawn) [Compound 21, (S)-3-[6,6-Dimethyl-4,4-dioxo-5-(3-trifluoromethylphenyl)-5,6-dihydro-4H-4lambda6-[1,4,3]oxathiazin-2-ylamino]-3-phenylpropan-1-ol]",22 nM
8,"CC1(C)OC(N[C@@H](CCO)c2ccccc2)=NS(=O)(=O)C1(C)c1cccc(N2CCN(S(C)(=O)=O)CC2)c1 (stereo partly drawn) [Compound 34, (S)-3-{5-[3-(4-Methanesulfonylpiperazin-1-yl)-phenyl]-5,6,6-trimethyl-4,4-dioxo-5,6-dihydro-4H-4lambda6-[1,4,3]oxathiazin-2-ylamino}-3-phenylpropan-1-ol]",17 nM
9,"CC1(C)OC(N[C@@H](CCO)c2ccccc2)=NS(=O)(=O)C1(C)c1cccc(N2CCCC2)c1 (stereo partly drawn) [Compound 38, (S)-3-Phenyl-3-[5,6,6-trimethyl-4,4-dioxo-5-(3-pyrrolidin-1-ylphenyl)-5,6-dihydro-4H-4lambda6-[1,4,3]oxathiazin-2-ylamino]propan-1-ol]",19 nM
10,"CC1(C)OC(N[C@@H](CCO)c2ccccc2)=NS(=O)(=O)C1(C)c1cccc(-c2cncnc2)c1 (stereo partly drawn) [Compound 40, (S)-3-Phenyl-3-[5,6,6-trimethyl-4,4-dioxo-5-(3-pyrimidin-5-ylphenyl)-5,6-dihydro-4H-4lambda6-[1,4,3]oxathiazin-2-ylamino]propan-1-ol]",15 nM
11,"C[C@H](NC1=NS(=O)(=O)C(C)(c2cccc(-c3cncnc3)c2)C(C)(C)O1)c1ccccc1F (stereo partly drawn) [Compound 41, [(S)-1-(2-Fluorophenyl)ethyl]-[5,6,6-trimethyl-4,4-dioxo-5-(3-pyrimidin-5-ylphenyl)-5,6-dihydro-4H-4lambda6-[1,4,3]oxathiazin-2-yl]amine]",10 nM

# Further compounds by falling IC50, results first:
row,IC50,SMILES
1,64 nM,"C[C@H](NC1=NS(=O)(=O)C(c2ccc(-c3ccccc3)cc2)C(C)(C)O1)c1ccccc1F (stereo partly drawn) [Compound 52, (5-Biphenyl-4-yl-6,6-dimethyl-4,4-dioxo-5,6-dihydro-4H-4lambda6-[1,4,3]oxathiazin-2-yl)-[(S)-1-(2-fluorophenyl)ethyl]amine]"
2,44 nM,"CC1(C)OC(N[C@@H](CCO)c2ccccc2F)=NS(=O)(=O)C1(C)c1cccc(-c2ccccc2)c1 (single isomer, unassigned) [Example 75]"
3,24 nM,"CC1(C)OC(N[C@@H](CCO)c2ccccc2)=NS(=O)(=O)C1(C)c1cccc(N2CCCC2)c1 (stereo partly drawn) [Compound 39, (S)-3-Phenyl-3-[5,6,6-trimethyl-4,4-dioxo-5-(3-pyrrolidin-1-ylphenyl)-5,6-dihydro-4H-4lambda6-[1,4,3]oxathiazin-2-ylamino]propan-1-ol]"
4,24 nM,"CC1(C)OC(N[C@@H](CCO)c2ccccc2F)=NS(=O)(=O)C1(C)c1cccc(N2CCCC2)c1 (stereo partly drawn) [Compound 49, (S)-3-(2-Fluorophenyl)-3-[5,6,6-trimethyl-4,4-dioxo-5-(3-pyrrolidin-1-ylphenyl)-5,6-dihydro-4H-4lambda6-[1,4,3]oxathiazin-2-ylamino]propan-1-ol]"
5,20 nM,"CC1(C)OC(N[C@@H](CCO)c2ccccc2F)=NS(=O)(=O)C1c1ccc(N2CCN(CCC(F)(F)F)CC2)cc1 (single isomer, unassigned) [Example 183]"
6,17 nM,"CC1(C)OC(N[C@@H](CCO)c2ccccc2F)=NS(=O)(=O)C1c1ccc(N2CCN(CCC(F)(F)F)CC2)cc1 (mixture of isomers) [Example 131, (S)-3-(6,6-Dimethyl-4,4-dioxo-5-{4-[4-(3,3,3-trifluoropropyl)-piperazin-1-yl]-phenyl}-5,6-dihydro-4H-4lambda6-[1,4,3]oxathiazin-2-ylamino)-3-(2-fluorophenyl)-propan-1-ol]"
7,15 nM,"C[C@H](NC1=NS(=O)(=O)C(C)(c2cccc(N3CCN(S(C)(=O)=O)CC3)c2)C(C)(C)O1)c1ccccc1F (stereo partly drawn) [Compound 35, [(S)-1-(2-Fluorophenyl)ethyl]-{5-[3-(4-methanesulfonylpiperazin-1-yl)-phenyl]-5,6,6-trimethyl-4,4-dioxo-5,6-dihydro-4H-4lambda6-[1,4,3]oxathiazin-2-yl}amine]"
8,15 nM,"C[C@H](NC1=NS(=O)(=O)C(C)(c2cccc(N3CCCC3)c2)C(C)(C)O1)c1ccccc1F (stereo partly drawn) [Compound 36, [(S)-1-(2-Fluorophenyl)ethyl]-[5,6,6-trimethyl-4,4-dioxo-5-(3-pyrrolidin-1-ylphenyl)-5,6-dihydro-4H-4lambda6-[1,4,3]oxathiazin-2-yl]amine]"
9,12 nM,"CC1(C)OC(N[C@@H](CCO)c2ccccc2F)=NS(=O)(=O)C1(C)c1cccc(-c2ccccc2)c1 (single isomer, unassigned) [Example 74]"
10,11 nM,"CC1(C)OC(N[C@@H](CCO)c2ccccc2F)=NS(=O)(=O)C1(C)c1cccc(N2CCCC2)c1 (stereo partly drawn) [Compound 45, (S)-3-(2-Fluorophenyl)-3-[5,6,6-trimethyl-4,4-dioxo-5-(3-pyrrolidin-1-ylphenyl)-5,6-dihydro-4H-4lambda6-[1,4,3]oxathiazin-2-ylamino]propan-1-ol]"
11,9 nM,"CC(C)(C)c1ccc(C2C(C)(C)OC(N[C@@H](CCO)c3ccccc3F)=NS2(=O)=O)cc1 (single isomer, unassigned) [Example 85]"
12,8 nM,"C[C@H](NC1=NS(=O)(=O)C(C)(c2ccccc2)C(C)(C)O1)c1ccccc1F (stereo partly drawn) [Compound 56, [(S)-1-(2-Fluorophenyl)ethyl]-(5,6,6-trimethyl-4,4-dioxo-5-phenyl-5,6-dihydro-4H-4lambda6-[1,4,3]oxathiazin-2-yl)amine, stereomer 1]"
13,7 nM,"C[C@H](NC1=NS(=O)(=O)C(C)(c2ccccc2)C(C)(C)O1)c1ccccc1F (stereo partly drawn) [Compound 43, [(S)-1-(2-Fluorophenyl)ethyl]-(5,6,6-trimethyl-4,4-dioxo-5-phenyl-5,6-dihydro-4H-4lambda6-[1,4,3]oxathiazin-2-yl)amine]"
14,7 nM,"C[C@H](NC1=NS(=O)(=O)C(C)(c2ccccc2)C(C)(C)O1)c1ccccc1F (stereo partly drawn) [Compound 57, [(S)-1-(2-Fluorophenyl)ethyl]-(5,6,6-trimethyl-4,4-dioxo-5-phenyl-5,6-dihydro-4H-4lambda6-[1,4,3]oxathiazin-2-yl)amine, stereomer 2]"
15,5 nM,"CC1(C)OC(N[C@@H](CCO)c2ccccc2F)=NS(=O)(=O)C1(C)c1ccccc1 (stereo partly drawn) [Compound 48, (S)-3-(2-Fluorophenyl)-3-(5,6,6-trimethyl-4,4-dioxo-5-phenyl-5,6-dihydro-4H-4lambda6-[1,4,3]oxathiazin-2-ylamino)propan-1-ol]"
